Values quoted from earlier work as cited in patent publication US7550154B2, “Methods of treatment with drug loaded polymeric materials” (Yale University, priority 2004, dated 2009).

For `COc1cccc2c1C(=O)c1c(O)c3c(c(O)c1C2=O)C[C@@](O)(C(=O)CO)C[C@@H]3O[C@H]1C[C@H](N)[C@H](O)[C@H](C)O1` [Dox, doxorubicin], the “solubility in aqueous environments” value is listed as “limited solubility”.
